Laboratory results taken from the OPERA property sets (Mansouri et al. 2018).

SMILES	logP
CCC(CC)C(=O)NS(=O)(=O)c1cc([N+](=O)[O-])cc(C(F)(F)F)c1	3.57
CC(C)C(=O)Nc1ccccc1S(N)(=O)=O	0.97
CCC(CC)C(=O)Nc1cc(C(F)(F)F)ccc1S(N)(=O)=O	3.06
COc1ccc(S(N)(=O)=O)c(NC(=O)C(C)C)c1	1.37
CCC(CC)C(=O)NS(=O)(=O)c1ccccc1[N+](=O)[O-]	2.17
CCC(CC)C(=O)NS(=O)(=O)c1ccc(OC)cc1N	2.03
CC(C)C(=O)NS(=O)(=O)c1ccccc1[N+](=O)[O-]	1.72
CCC(CC)C(=O)NS(=O)(=O)c1ccc(C)cc1[N+](=O)[O-]	2.67
CCC(CC)C(=O)Nc1cc(C)ccc1S(N)(=O)=O	2.13
CC(C)C(=O)NS(=O)(=O)c1ccccc1N	1.17
CCC(CC)C(=O)Nc1cc(OC)ccc1S(N)(=O)=O	2.01
Cc1ccc(S(N)(=O)=O)c(NC(=O)C(C)C)c1	1.45
CCC(CC)C(=O)NS(=O)(=O)c1ccccc1N	1.64
CCC(CC)C(=O)Nc1ccccc1S(N)(=O)=O	1.62
Cc1ccc(S(=O)(=O)NC(=O)C(C)C)c([N+](=O)[O-])c1	2.17
COc1ccc(S(=O)(=O)NC(=O)C(C)C)c(N)c1	1.58
CC(C)C(=O)Nc1cc(Cl)ccc1S(N)(=O)=O	1.87
Cc1ccc(S(=O)(=O)NC(=O)C(C)C)c(N)c1	1.65
